How the values were obtained:
STAT5b = test system: STAT5b; set-up: method as in literature; conditions: training set for retrospective virtual screening with 6MBW; known actives for STAT5b found in the literature; ref literature; cited from earlier work
[1] = target: T1, STAT3 (127–770) SH2 domain (Homo sapiens, UniProt P40763); assay: Fluorescence polarization assay (FP-assay), STAT3 SH2 domain; assay type: binding; set-up: key to identified as active in FP-assay: A compound was identified as active, if it had a mean IC50 value under 100 μM; conditions: for IC50: FP-assay, mean IC50, at least three biological replicates
T1 construct: For STAT3 (127–770), the final concentration of the protein was 200 nM; made in house
T1 sequence (P40763 127-770): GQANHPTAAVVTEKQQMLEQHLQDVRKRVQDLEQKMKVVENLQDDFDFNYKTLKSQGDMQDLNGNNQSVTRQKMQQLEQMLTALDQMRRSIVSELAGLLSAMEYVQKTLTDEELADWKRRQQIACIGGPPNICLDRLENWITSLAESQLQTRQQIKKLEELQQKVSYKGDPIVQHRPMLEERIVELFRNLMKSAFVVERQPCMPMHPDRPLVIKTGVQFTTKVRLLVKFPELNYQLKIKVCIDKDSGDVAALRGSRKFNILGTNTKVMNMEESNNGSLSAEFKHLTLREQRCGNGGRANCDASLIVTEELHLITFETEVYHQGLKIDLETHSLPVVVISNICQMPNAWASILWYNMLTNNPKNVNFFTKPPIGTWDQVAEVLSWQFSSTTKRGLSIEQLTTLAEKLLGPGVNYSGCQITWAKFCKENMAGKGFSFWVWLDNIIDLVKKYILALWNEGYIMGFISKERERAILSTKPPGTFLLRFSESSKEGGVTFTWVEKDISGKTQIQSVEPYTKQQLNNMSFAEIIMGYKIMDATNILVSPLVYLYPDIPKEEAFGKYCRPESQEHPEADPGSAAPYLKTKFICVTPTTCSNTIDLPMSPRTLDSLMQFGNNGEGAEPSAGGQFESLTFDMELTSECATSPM
Protocol: (§1) The respective protocols for the expression and purification of the STAT3 SH2 and STAT5b SH2 domains were published in our recent works. Fluorescence polarization assays (FP-assays) were performed on a Molecular Devices SpectraMax iD5Multimode Microplate Reader (San Jose, CA, USA) using Greiner black 384-well flat-bottom nonbinding microplates with 40 μL final well volumes. The fluorescent peptides (5-FAM-G(pTyr)-LPQTV-NH2 and 5-FAM-G(pTyr)-LVLDKW-NH2, purchased from GenScript Biotech Ltd., Piscataway, NJ, USA), as well as the proteins, were diluted with a buffer containing 50 mM NaCl, 10 mM HEPES (4-(2-hydroxyethyl)-1-piperazineethanesulfonic acid), 1 mM EDTA (ethylenediaminetetraacetic acid), 2 mM DTT (dithiothreitol), and 0.1% Triton X-100, pH 7.5. For STAT3 (127–770), the final concentration of the protein was 200 nM, and the fluorescent peptide (5-FAM-G(pTyr)-LPQTV-NH2) was added at a final concentration of 5 nM; for STAT5b (136–703), the final concentration of the protein was 500 nM, and the fluorescent peptide (5-FAM-G(pTyr)-LVLDKW-NH2) was added at a final concentration of 10 nM. The wells were treated with varying concentrations of inhibitors (1250 to 0.11 μM final concentrations). The final DMSO content was 2.5%. After mixing, the protein and inhibitors were incubated at room temperature for 30 min, then the fluorescent peptide was added, and the plate was incubated for another 20 min prior to the fluorescence readout (extinction wavelength: 475 nm, emission wavelength: 520 nm). The measurements were carried out in at least three biological replicates. Fluorescence polarization was calculated from the perpendicular and parallel fluorescence intensities and then plotted against concentration. The IC50 values were determined after fitting quadratic dose–response curves on the data points in GraphPad Prism 8.0.1. […] All plotted curves and data points for the hit compounds are included in Section 2 of the Supporting Information.

[2] = target: T2, STAT5b N-terminal domain (NTD) (Homo sapiens, UniProt P51692); assay: Isothermal titration calorimetry (ITC), STAT5b-NTD; assay type: binding; set-up: key to identified as active in ITC: A compound was identified as active, if it had a mean Kd value under 100 μM; conditions: for Kd: ITC, 25 °C, 1X PBS pH 7.4, 8% DMSO, single-site fit
T2 sequence (P51692 1-126 limits assumed): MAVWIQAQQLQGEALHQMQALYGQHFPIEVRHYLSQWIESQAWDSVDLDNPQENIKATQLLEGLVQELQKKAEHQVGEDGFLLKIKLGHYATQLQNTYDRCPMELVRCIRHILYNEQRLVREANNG
Protocol: The detailed protocol for the expression and purification of the STAT5b-NTD was described in our recent work. ITC measurements were carried out on a MicroCal PEAQ-ITC microcalorimeter (Malvern Instruments, Worcestershire, UK). All protein and ligand solutions were composed of 1X PBS (pH 7.4) buffer containing 8% (V/V) DMSO to avoid buffer mismatch. Protein solutions containing 25-26 μM protein were prepared in batches prior to measurements by diluting 676 μM stock solution (stored in 1X PBS (pH 7.4) buffer at -80 °C) warmed to room temperature with 1X PBS (pH 7.4) buffer solution and an appropriate amount of DMSO. Ligand solutions were prepared by first dissolving the ligands in DMSO to acquire a 50 mM stock solution, which was then diluted to 1 mM (in the case of […]_M2 ligand) or 4 mM (all other ligands) concentration using 1X PBS (pH 7.4) buffer solution. Appropriate amounts of DMSO were also added to the solution containing 1 mM ligand to yield a 8% (V/V) DMSO content. The protein solution was loaded into the sample cell in a volume of 200 μL and was titrated at 25 °C with the ligand solution at a stirring speed of 1000 rpm and a reference heat rate of 10 μcal/s in a high feedback mode. Used initial delay was 120 s, and the injection program was composed of an initial first injection with 0.5 μL over 2 s, followed by 18 injections with 2 μL over 4 s. Injections were performed every 180 s. Blank measurements consisting of titrating the ligand into the buffer (1X PBS (pH 7.4) containing 8% (V/V) DMSO) were carried out to correct for the heat of dilution for all ligands using the appropriate injection program. Data were analyzed using the MicroCal PEAQ-ITC analysis software (version 1.22) by fitting a single-site binding curve. […] Binding curves of the identified active compounds are included in Supporting Information Figures S3-S5.

[3] = target: T3, STAT5b (136–703) SH2 domain (Homo sapiens, UniProt P51692); assay: Fluorescence polarization assay (FP-assay), STAT5b SH2 domain; assay type: binding; set-up: key to identified as active in FP-assay: A compound was identified as active, if it had a mean IC50 value under 100 μM; conditions: for IC50: FP-assay, mean IC50, at least three biological replicates
T3 sequence (P51692 136-703): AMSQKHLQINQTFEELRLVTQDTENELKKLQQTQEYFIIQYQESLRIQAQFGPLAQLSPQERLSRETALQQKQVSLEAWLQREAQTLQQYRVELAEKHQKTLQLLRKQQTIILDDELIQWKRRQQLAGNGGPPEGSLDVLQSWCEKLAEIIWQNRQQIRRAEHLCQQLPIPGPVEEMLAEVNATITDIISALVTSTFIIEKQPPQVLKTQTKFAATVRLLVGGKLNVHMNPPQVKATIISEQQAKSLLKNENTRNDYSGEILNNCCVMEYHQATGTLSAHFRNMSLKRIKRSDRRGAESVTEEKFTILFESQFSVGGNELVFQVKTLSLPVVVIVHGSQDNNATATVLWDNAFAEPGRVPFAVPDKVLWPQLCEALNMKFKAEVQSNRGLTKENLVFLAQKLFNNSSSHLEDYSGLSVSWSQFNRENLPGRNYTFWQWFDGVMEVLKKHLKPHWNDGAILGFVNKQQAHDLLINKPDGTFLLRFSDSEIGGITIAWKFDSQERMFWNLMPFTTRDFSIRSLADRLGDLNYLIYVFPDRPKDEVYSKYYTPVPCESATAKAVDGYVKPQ
Protocol: as §1

CC(C)(C)c1cc(CN(C(=O)CN(Cc2ccc(Cl)cc2)S(=O)(=O)c2c(F)c(F)c(F)c(F)c2F)c2ccc(C(=O)O)c(O)c2)cc(C(C)(C)C)c1 [13a, CC(C)(C)c1cc(CN(C(=O)CN(Cc2ccc(Cl)cc2)S(=O)(=O)c2c(F)c(F)c(F)c(F)c2F)c2ccc(C(=O)O)c(O)c2)cc(C(C)(C)C)c1]
Type (Active / decoy) (STAT5b): Active

CC(C)(C)c1cc(CN(C(=O)CN(Cc2ccc(Cl)cc2)S(=O)(=O)c2c(F)c(F)c(F)c(F)c2F)c2ccc(C(=O)O)cc2)cc(C(C)(C)C)c1 [AC-4-130, CC(C)(C)c1cc(CN(C(=O)CN(Cc2ccc(Cl)cc2)S(=O)(=O)c2c(F)c(F)c(F)c(F)c2F)c2ccc(C(=O)O)cc2)cc(C(C)(C)C)c1]
Type (Active / decoy) (STAT5b): Active

COC(=O)c1cccc(-c2ccc(-c3ccc(CN(C(=O)CN(C)S(=O)(=O)c4ccc(C)cc4)c4ccc(C(=O)O)c(O)c4)cc3)cc2)c1 [BP-1-075, COC(=O)c1cccc(-c2ccc(-c3ccc(CN(C(=O)CN(C)S(=O)(=O)c4ccc(C)cc4)c4ccc(C(=O)O)c(O)c4)cc3)cc2)c1]
Type (Active / decoy) (STAT5b): Active

C[C@@H](NC(=O)[C@@H]1CCCC[C@@H]1C(=O)O)c1ccncc1 [S3_M2, c1cnccc1[C@@H](C)NC(=O)[C@@H]2CCCC[C@@H]2C([OH])=O]
identified as active in FP-assay [1]: active | IC50 [1]: 80 ± 34.3 µM

O=C(O)c1[nH]c2ccccc2c1C(=O)O [S3_M5, [OH]C(=O)c([nH]1)c(C(=O)[OH])c(c12)cccc2]
identified as active in FP-assay [1]: active | IC50 [1]: 53.2 ± 46.9 µM

O=C(O)CCCn1ccc2c(nnc3ccnn32)c1=O [S3_M13, n1ccc(nn2)n1c(c23)ccn(c3=O)CCCC([OH])=O]
identified as active in FP-assay [1]: active | IC50 [1]: 64.4 ± 17.7 µM

Nc1ccc(C(=O)O)c(C(=O)O)c1 [S3_M15, Nc1cc(C([OH])=O)c(C([OH])=O)cc1]
identified as weakly binding in FP-assay [1]: weakly binding (A weakly binding compound (mean IC50 value higher than 100 μM))

Cc1cc(=O)c(C(=O)O)c(O)[nH]1 [S3_M16, [OH]C(=O)c1c(=O)cc(C)[nH]c1O]
IC50 [1]: 111 ± 64.7 µM

Cc1c(O)ccc2c(CC(=O)NCC(=O)NCC(=O)O)cc(=O)oc12 [S3_O10, Cc1c(O)ccc2c(CC(=O)NCC(=O)NCC(=O)[OH])cc(=O)oc12]
identified as active in FP-assay [1]: active | IC50 [1]: 99.9 ± 55.6 µM

O=C(NCC[C@@H](O)c1ccc2c(c1)OCO2)C(=O)Nc1ccc(F)c(Cl)c1 [S5N_M1, Clc(c1)c(F)ccc1NC(=O)C(=O)NCC[C@@H](O)c(cc2)cc(c23)OCO3]
identified as weakly binding in ITC [2]: weakly binding (weakly binding (mean Kd is higher than 100 μM)) | Kd [2]: 484 ± 22.5 µM

C[C@@](O)(CNC(=O)NCc1cccc2ccccc12)c1ccc2c(c1)OCO2 [S5N_M2, c1cccc(c12)c(ccc2)CNC(=O)NC[C@@](C)(O)c(cc3)cc(c34)OCO4]
identified as active in ITC [2]: active | Kd [2]: 34.9 ± 4.29 µM

O=C(NC[C@@]1(O)CCCNC1)Nc1cc(Cl)ccc1Cl [S5N_M4, Clc(c1)ccc(Cl)c1NC(=O)NC[C@@]2(O)CCC[NH]C2]
identified as active in ITC [2]: active | Kd [2]: 81.3 ± 12.7 µM

CC(=O)N1CC[C@@H](NC(=O)c2cc3ccccc3cc2O)[C@H](O)C1 [S5N_M6, c1cccc(c12)cc(c(O)c2)C(=O)N[C@@H]3CCN(C(=O)C)C[C@H]3O]
identified as active in ITC [2]: active | Kd [2]: 57.3 ± 11.9 µM

N[C@H]1C[C@@H](c2cc(N[C@H](CO)Cc3ccccc3)ncn2)C1 [S5N_M7, C1[C@H]([NH2])C[C@@H]1c(c2)ncnc2N[C@H](CO)Cc3ccccc3]
identified as weakly binding in ITC [2]: weakly binding (weakly binding (mean Kd is higher than 100 μM)) | Kd [2]: 268 ± 37.8 µM

O=C(O)C[C@@H](O)c1nc2ccccc2[nH]1 [S5_M1, [OH]C(=O)C[C@@H](O)c([nH]1)nc(c12)cccc2]
identified as active in FP-assay [3]: active | IC50 [3]: 38.7 ± 13.7 µM

COc1cnc(CSc2nc(C)cc(C)n2)cc1OCC(N)=O [S5_M2, Cc(n1)cc(C)nc1SCc2cc(c(cn2)OC)OCC(=O)N]
identified as active in FP-assay [3]: active | IC50 [3]: 62.4 ± 28.2 µM

Cc1c(CC(=O)N[C@H](CCCCNC(N)=O)C(=O)O)c(=O)oc2cc(O)ccc12 [S5_M6, c1cc(O)cc(c12)oc(=O)c(c2C)CC(=O)N[C@@H](C([OH])=O)CCCCNC(=O)N]
identified as weakly binding in FP-assay [3]: weakly binding (A weakly binding compound (mean IC50 value higher than 100 μM)) | IC50 [3]: 378 ± 108 µM

O=C(O)[C@@H](O)[C@@H](O)c1nc2ccccc2[nH]1 [S5_M7, [OH]C(=O)[C@@H](O)[C@@H](O)c([nH]1)nc(c12)cccc2]
identified as active in FP-assay [3]: active | IC50 [3]: 16.2 ± 8.2 µM

Nc1nc(NCCc2cn3ccsc3n2)cc([C@H]2C[C@H](O)C2)n1 [S5_M8, s1ccn(c12)cc(n2)CCNc3cc(nc(n3)N)[C@@H]4C[C@H](C4)O]
identified as active in FP-assay [3]: active | IC50 [3]: 41.2 ± 10.5 µM

O=C(CCc1nc2ccccc2[nH]1)NCc1cc(-c2ccccc2)[nH]n1 [S5_M9, c1cccc(c12)[nH]c(n2)CCC(=O)NCc3n[nH]c(c3)-c4ccccc4]
identified as active in FP-assay [3]: active | IC50 [3]: 42.6 ± 20.2 µM

O=C(NCCc1cnccn1)[C@H]1CCCN(C2CCN(Cc3ccncc3)CC2)C1 [S5_M13, c1cnccc1CN(CC2)CCC2[N@@]3CCC[C@@H](C3)C(=O)NCCc4cnccn4]
identified as active in FP-assay [3]: active

Cn1c(CN2CCC(O)CC2)nnc1[C@H]1CCCN(Cc2ncc[nH]2)C1 [S5_M14, C1CC(O)CCN1Cc(n2C)nnc2[C@H]3CCCN(C3)Cc4[nH]cc[n]4]
IC50 [3]: 13.8 ± 14.9 µM
